# Assay results reported in ChEMBL document CHEMBL1201862, “PubChem BioAssay data set” (2004).
#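 Results reflect a 48-hour exposure of cells in 96-well plates to compound at five concentrations. GI50 is the concentration that inhibits growth by half.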 Active and inactive are the calls of the source. Cut-off read from the data, not from the text of the source: active = GI50 up to about 1.1 µM and inactive = higher.
# Legend:
# Assay in all cases: inhibition of tumour cell growth, NCI panel, 48 h
# HL-60 = test system: HL-60
# NCI-H460 = test system: NCI-H460
# SNB-75 = test system: SNB-75
# IGROV-1 = test system: IGROV-1
# M14 = test system: M14
# OVCAR-5 = test system: OVCAR-5
# HCT-15 = test system: HCT-15
# UACC-257 = test system: UACC-257
# SK-MEL-28 = test system: SK-MEL-28
# ACHN = test system: ACHN
# OVCAR-4 = test system: OVCAR-4
# CCRF-CEM = test system: CCRF-CEM
# SNB-19 = test system: SNB-19
# RPMI-8226 = test system: RPMI-8226
# HT-29 = test system: HT-29
# SK-OV-3 = test system: SK-OV-3
# A498 = test system: A498
# SF-268 = test system: SF-268
# RXF 393 = test system: RXF 393
# EKVX = test system: EKVX
SMILES,GI50 (HL-60),GI50 (NCI-H460),GI50 (SNB-75),GI50 (IGROV-1),GI50 (M14),GI50 (OVCAR-5),GI50 (HCT-15),GI50 (UACC-257),GI50 (SK-MEL-28),GI50 (ACHN),GI50 (OVCAR-4),GI50 (CCRF-CEM),GI50 (SNB-19),GI50 (RPMI-8226),GI50 (HT-29),GI50 (SK-OV-3),GI50 (A498),GI50 (SF-268),GI50 (RXF 393),GI50 (EKVX)
CC(=O)OC(OC(C)=O)n1cc(C=O)c2ccccc21,> 100 µM (inactive),> 100 µM (inactive),> 10 µM (inactive),> 10 µM (inactive),> 100 µM (inactive),> 100 µM (inactive),> 100 µM,> 100 µM (inactive),> 100 µM (inactive),> 100 µM (inactive),> 100 µM (inactive),> 100 µM (inactive),> 100 µM (inactive),> 100 µM (inactive),> 100 µM (inactive),> 100 µM (inactive),36.7 µM (inactive),,,
CC1(C)OP23(NC(=O)OC2(C(F)(F)F)c2ccccc2O3)OC1(C)C (centres undefined),> 100 µM (inactive),> 100 µM (inactive),> 100 µM (inactive),,> 100 µM (inactive),,> 100 µM,> 100 µM (inactive),> 100 µM (inactive),> 100 µM (inactive),> 100 µM (inactive),> 100 µM (inactive),> 100 µM (inactive),,> 100 µM (inactive),> 100 µM (inactive),,> 100 µM (inactive),> 100 µM (inactive),
C[N+](C)([O-])CCOc1cc2c(c3ccccc13)-c1ccccc1C2=O,14.3 µM (inactive),9.44 µM (inactive),17.5 µM (inactive),19.1 µM (inactive),,24 µM (inactive),28.2 µM,6.65 µM (inactive),18.3 µM (inactive),,3.92 µM (inactive),8.2 µM (inactive),13.6 µM (inactive),12.3 µM (inactive),7.46 µM (inactive),35.4 µM (inactive),20.3 µM (inactive),10.9 µM (inactive),17.7 µM (inactive),25.9 µM (inactive)
CC(=O)C1CC[C@@H]2[C@H](CC[C@]3(C)[C@@H](O)CC[C@@H]23)[C@H]1C(=O)O (some centres undefined),> 100 µM (inactive),> 100 µM (inactive),,> 100 µM (inactive),> 100 µM (inactive),> 100 µM (inactive),> 100 µM,> 100 µM (inactive),> 100 µM (inactive),,> 100 µM (inactive),> 100 µM (inactive),> 100 µM (inactive),> 100 µM (inactive),> 100 µM (inactive),> 100 µM (inactive),> 100 µM (inactive),> 100 µM (inactive),> 100 µM (inactive),> 100 µM (inactive)
CN(C)CCCn1c(-c2cc(C(C)(C)C)c(O)c(C(C)(C)C)c2)cs/c1=N\c1ccccc1,0.1 µM (active),2.35 µM (inactive),3.88 µM (inactive),,1.72 µM (inactive),2.23 µM (inactive),3.24 µM,1.47 µM (inactive),2.39 µM (inactive),2.98 µM (inactive),2.09 µM (inactive),,2.14 µM (inactive),1.4 µM (inactive),,1.96 µM (inactive),1.94 µM (inactive),1.85 µM (inactive),2.17 µM (inactive),2.16 µM (inactive)
O=[N+]([O-])c1ccc2[nH]c3c(-c4ccccc4)nccc3c2c1,6 µM (inactive),14.4 µM (inactive),11.7 µM (inactive),7.03 µM (inactive),,67.8 µM (inactive),8.59 µM,30 µM (inactive),29.2 µM (inactive),,10.5 µM (inactive),4.09 µM (inactive),15.3 µM (inactive),0.796 µM (active),10.7 µM (inactive),12.9 µM (inactive),82.6 µM (inactive),25 µM (inactive),25.4 µM (inactive),21.1 µM (inactive)
CN(/N=C1\C(=O)Nc2ccccc21)c1ccccc1,56.5 µM (inactive),91.8 µM (inactive),2.32 µM (inactive),36.6 µM (inactive),74.6 µM (inactive),45.6 µM (inactive),44.2 µM,> 100 µM (inactive),> 100 µM (inactive),77.6 µM (inactive),95.3 µM (inactive),58.7 µM (inactive),> 100 µM (inactive),74.3 µM (inactive),54.3 µM (inactive),> 100 µM (inactive),> 100 µM (inactive),43.2 µM (inactive),,29.8 µM (inactive)
C[Si](C)(C)/C=C/CN1C(=O)CCC1=O,> 100 µM (inactive),> 100 µM (inactive),83.2 µM (inactive),> 100 µM (inactive),> 100 µM (inactive),> 100 µM (inactive),> 100 µM,,> 100 µM (inactive),> 100 µM (inactive),,> 100 µM (inactive),> 100 µM (inactive),> 100 µM (inactive),> 100 µM (inactive),> 100 µM (inactive),> 100 µM (inactive),> 100 µM (inactive),,> 100 µM (inactive)
COc1cc(C2C(C(=O)O)=C(CO)Oc3cc4c(cc32)OCO4)cc(OC)c1O (centres undefined),> 100 µM (inactive),> 100 µM (inactive),> 100 µM (inactive),> 100 µM (inactive),> 100 µM (inactive),,> 100 µM,> 100 µM (inactive),> 100 µM (inactive),> 100 µM (inactive),> 100 µM (inactive),> 100 µM (inactive),> 100 µM (inactive),> 100 µM (inactive),> 100 µM (inactive),> 100 µM (inactive),,,,> 100 µM (inactive)
COC(=O)c1cn(CC(O)CCl)nn1 (centres undefined),> 10 µM (inactive),> 100 µM (inactive),> 100 µM (inactive),> 100 µM (inactive),> 100 µM (inactive),> 100 µM (inactive),> 100 µM,> 100 µM (inactive),> 100 µM (inactive),> 100 µM (inactive),> 100 µM (inactive),> 100 µM (inactive),> 100 µM (inactive),> 100 µM (inactive),> 100 µM (inactive),,> 100 µM (inactive),> 100 µM (inactive),> 100 µM (inactive),> 100 µM (inactive)
CC(=O)OCC1OC(n2c3c(c(-c4ccco4)c(C#N)c2=S)CCC3)C(OC(C)=O)C(OC(C)=O)C1OC(C)=O (centres undefined),82.8 µM (inactive),> 100 µM (inactive),23.4 µM (inactive),69.3 µM (inactive),> 100 µM (inactive),> 100 µM (inactive),> 100 µM,> 100 µM (inactive),> 100 µM (inactive),> 100 µM (inactive),56.8 µM (inactive),8.09 µM (inactive),> 100 µM (inactive),28.1 µM (inactive),> 100 µM (inactive),> 100 µM (inactive),,> 100 µM (inactive),20.2 µM (inactive),
COc1c(Br)cc(CC(N)=O)c(O)c1Br,> 100 µM (inactive),,> 100 µM (inactive),> 100 µM (inactive),,> 100 µM (inactive),,> 100 µM (inactive),> 100 µM (inactive),> 100 µM (inactive),> 100 µM (inactive),> 100 µM (inactive),> 100 µM (inactive),,> 100 µM (inactive),> 100 µM (inactive),> 100 µM (inactive),> 100 µM (inactive),> 100 µM (inactive),> 100 µM (inactive)
COc1nc(SC)nc2c1cnn2C1OC(C(O)CO)C(OC)C1O (centres undefined),52.7 µM (inactive),74.6 µM (inactive),48.4 µM (inactive),> 100 µM (inactive),,> 100 µM (inactive),> 83 µM,> 75.7 µM (inactive),> 100 µM (inactive),,69.3 µM (inactive),58.7 µM (inactive),> 100 µM (inactive),63.8 µM (inactive),52.4 µM (inactive),> 100 µM (inactive),> 100 µM (inactive),> 92.7 µM (inactive),> 83.2 µM (inactive),> 100 µM (inactive)
O=C(O)C12CCCCC1CCCC2 (centres undefined),> 100 µM (inactive),> 100 µM (inactive),98.2 µM (inactive),> 100 µM (inactive),> 100 µM (inactive),> 100 µM (inactive),> 100 µM,,> 100 µM (inactive),> 100 µM (inactive),> 100 µM (inactive),> 100 µM (inactive),> 100 µM (inactive),> 100 µM (inactive),> 100 µM (inactive),> 100 µM (inactive),> 100 µM (inactive),> 100 µM (inactive),,> 100 µM (inactive)
Cc1cc(C)n(C(=C(C(Cl)=C(Cl)Cl)[N+](=O)[O-])n2nc(C)cc2C)n1,1.91 µM (inactive),3.52 µM (inactive),6.25 µM (inactive),4.03 µM (inactive),3.8 µM (inactive),7.93 µM (inactive),3.2 µM,3.24 µM (inactive),6.17 µM (inactive),3.21 µM (inactive),3.59 µM (inactive),2.16 µM (inactive),4.81 µM (inactive),,3.5 µM (inactive),3.29 µM (inactive),2.86 µM (inactive),4.23 µM (inactive),3.79 µM (inactive),2.58 µM (inactive)
ClCC1(CCl)COC1,> 100 µM (inactive),> 100 µM (inactive),> 100 µM (inactive),,> 100 µM (inactive),,> 100 µM,> 100 µM (inactive),> 100 µM (inactive),> 100 µM (inactive),> 100 µM (inactive),> 100 µM (inactive),> 100 µM (inactive),,> 100 µM (inactive),> 100 µM (inactive),> 100 µM (inactive),> 100 µM (inactive),> 100 µM (inactive),
